Experimental data as given in patent US5703241A, “Inhibitor of farnesyl-protein transferase” (Merck & Co., Inc., priority 1996, dated 1997).

Key:
human FPTase = biological target: T1, human FPTase (Homo sapiens, UniProt P49354+P49356); assay: In vitro inhibition of human farnesyl-protein transferase ([3H]-FPP incorporation into Ras-CVIM); format: biochemical; conditions: 100 nM Ras-CVIM, 30 min, read-out: IC50, inhibitory activity against human FPTase
T1 construct: made in house

[1] = test system: farnesyl-protein transferase in white blood cells; assay: In vivo pharmacodynamic effects of farnesyl-protein transferase inhibitors in mammalian white blood cells; conditions: following a single administration of the compound
Description: In vivo pharmacodynamic effects of farnesyl-protein transferase inhibitors in mammalian white blood cells
The test mammal (beagle, Cynomolgus monkey, Rhesus monkey or African green monkey) is dosed by an IV, PO or suppository dose of a given concentration of drug in a suitable vehicle, such as IV:5% EtOH/citrate buffered saline, PO:50 mmol citric acid in water and suppository: 17.7% compound, 38% hydrous lactose; 44.3% PEG 8000.
Following drug dosing, the animals are bled at times t=0, 5 mins., 15 mins., 30 mins., 60 mins., 90 mins., 180 mins.(3 hours), 270 mins. (4.5 hours), 360 mins. (6 hours) and 1440 mins. (24 hours) by withdrawing 3 mL of blood into a sodium heparin vacutainer tube and placing the drawn blood immediately on ice. The vacutainer tubes are then spun at 2800 rpm in a table top centrifuge for 5 minutes at 4 degrees. Following the spin, the upper plasma layer is withdrawn from the vacutainer tube leaving an 1/8" of plasma on top of the blood pellet. The vacutainer tubes and plasma tubes are then put into dry ice for a quick freeze and once frozen, the samples are stored at -70° degrees.
For evaluation of the white blood cells, the frozen vacutainer tube is broken at the bottom utilizing a triangular metal file, and the frozen pellet of blood is removed (prior to breaking the tube it can warmed slightly in a 30° bath taking precautions not to melt the pellet). […]

IC50 (human FPTase) [µM]	Compound	inhibition of FPTase in white blood cells of mammals [1]
< 10	COc1ccccc1CN(CC(=O)N[C@@H](CCSC)C(=O)O)C[C@@H]1CCCN1C(=O)CCc1c[nH]cn1 [Example 2, N-[1-(1H-Imidazol-4-propionyl)pyrrolidin-2(S)-ylmethyl]-N-(2-methoxybenzyl)glycyl-methionine]	–
–	COc1ccccc1CN(CC(=O)N[C@@H](CCSC)C(=O)OC(C)C)C[C@@H]1CCCN1C(=O)CCc1c[nH]cn1 [Example 1, N-[1-(1H-Imidazol-4-propionyl)pyrrolidin-2(S)-ylmethyl]-N-(2-methoxybenzyl) glycyl-methionine isopropyl ester]	sustained inhibition of FPTase in white blood cells
